In ChEMBL document CHEMBL1201862, “PubChem BioAssay data set” (2004):
Activity calls are given as the source filed them.

Experiments:
[1] = Luminescence Cell-Based Dose Response HTS to Identify Activators of Luciferase Translation or Activity in H4 […] Cells. [Related pubchem assays: 1829 (Project Summary), 1814 (Primary HTS)]; type: functional
[2] = biological target: T1, Carboxy-terminal domain RNA polymerase II polypeptide A small phosphatase 1 (Homo sapiens, UniProt Q9GZU7); assay: CTDSP1 inhibitors, concentration-response, biochemical, absorbance readout, ultra-high-throughput screen actives (AID 540297); type: functional
T1 sequence (Q9GZU7 whole entry): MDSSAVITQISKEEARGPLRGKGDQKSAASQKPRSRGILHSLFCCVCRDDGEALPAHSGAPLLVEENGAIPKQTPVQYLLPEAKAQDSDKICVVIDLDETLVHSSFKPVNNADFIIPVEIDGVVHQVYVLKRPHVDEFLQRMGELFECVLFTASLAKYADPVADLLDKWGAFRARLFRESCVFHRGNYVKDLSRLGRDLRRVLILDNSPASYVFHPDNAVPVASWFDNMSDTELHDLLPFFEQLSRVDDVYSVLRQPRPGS

[3] = alpha-synuclein stem-loop luciferase translation blockers – H4 neuroglioma cells, luminescence, confirmation (AID 1988); type: functional, cell-based
[4] = luciferase reporter signal suppression in cells – H4 neuroglioma cells, luminescence, dose response (AID 1990); type: functional, cell-based
[5] = Luminescence Cell-Based Dose Response HTS to Identify Inhibitors of 5'UTR Stem-Loop Driven Prion Protein mRNA Translation in H4 Neuroglioblastoma Cells. [Related pubchem assays: 1827 (Project Summary), 1813 (Primary HTS)]; type: functional
Protein skinhead-1 = biological target: T2, Protein skinhead-1 (Caenorhabditis elegans, UniProt P34707); type: functional
T2 sequence (P34707 whole entry): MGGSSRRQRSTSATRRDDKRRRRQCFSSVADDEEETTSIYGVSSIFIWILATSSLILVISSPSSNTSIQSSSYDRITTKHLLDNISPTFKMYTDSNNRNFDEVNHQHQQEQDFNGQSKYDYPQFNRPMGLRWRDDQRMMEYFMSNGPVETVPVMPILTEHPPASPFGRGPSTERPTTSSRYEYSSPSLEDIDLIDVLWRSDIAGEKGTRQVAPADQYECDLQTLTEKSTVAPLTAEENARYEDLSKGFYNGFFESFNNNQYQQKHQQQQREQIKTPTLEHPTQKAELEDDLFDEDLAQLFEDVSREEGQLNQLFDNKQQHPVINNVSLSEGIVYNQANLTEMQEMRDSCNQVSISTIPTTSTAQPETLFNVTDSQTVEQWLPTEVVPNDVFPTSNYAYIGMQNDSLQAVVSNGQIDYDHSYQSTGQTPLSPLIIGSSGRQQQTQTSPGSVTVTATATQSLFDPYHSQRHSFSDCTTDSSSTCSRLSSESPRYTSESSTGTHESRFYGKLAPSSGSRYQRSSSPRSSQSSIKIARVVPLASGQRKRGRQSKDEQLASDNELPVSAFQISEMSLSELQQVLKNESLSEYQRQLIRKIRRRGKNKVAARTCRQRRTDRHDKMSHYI

Genome polyprotein = Genome polyprotein (dengue virus type 2, UniProt P29990); assay: flavivirus cap methylation enzyme inhibition – biochemical, confirmation dose response, primary screen (AID 588689); type: functional
Sequence of Genome polyprotein (P29990 2492-3391 limits assumed): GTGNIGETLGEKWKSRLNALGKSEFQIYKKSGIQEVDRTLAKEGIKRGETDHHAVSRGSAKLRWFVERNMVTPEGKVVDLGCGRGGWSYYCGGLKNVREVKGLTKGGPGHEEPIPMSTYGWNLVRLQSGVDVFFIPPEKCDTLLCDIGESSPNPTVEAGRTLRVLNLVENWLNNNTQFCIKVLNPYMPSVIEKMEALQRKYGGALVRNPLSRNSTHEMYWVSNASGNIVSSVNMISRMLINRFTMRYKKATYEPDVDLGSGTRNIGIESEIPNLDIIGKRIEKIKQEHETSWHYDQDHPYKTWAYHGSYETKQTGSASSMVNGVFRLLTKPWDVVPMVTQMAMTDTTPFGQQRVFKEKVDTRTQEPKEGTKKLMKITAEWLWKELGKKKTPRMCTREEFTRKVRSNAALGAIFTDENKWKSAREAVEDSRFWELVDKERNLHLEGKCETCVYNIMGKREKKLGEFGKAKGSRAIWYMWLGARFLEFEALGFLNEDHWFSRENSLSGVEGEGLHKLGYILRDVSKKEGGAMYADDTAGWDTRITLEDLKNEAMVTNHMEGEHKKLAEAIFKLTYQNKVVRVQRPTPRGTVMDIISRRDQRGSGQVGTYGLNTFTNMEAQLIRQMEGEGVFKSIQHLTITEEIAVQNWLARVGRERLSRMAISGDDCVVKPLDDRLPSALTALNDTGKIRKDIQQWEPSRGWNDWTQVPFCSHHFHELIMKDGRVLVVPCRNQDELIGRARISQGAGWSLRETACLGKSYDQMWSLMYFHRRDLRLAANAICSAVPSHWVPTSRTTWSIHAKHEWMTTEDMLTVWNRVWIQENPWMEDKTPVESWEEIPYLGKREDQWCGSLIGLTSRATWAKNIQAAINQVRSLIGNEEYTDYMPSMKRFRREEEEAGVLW

Protein RecA = biological target: T3, Protein RecA (Mycobacterium tuberculosis, UniProt P9WHJ3); assay: Fluorescence Cell-Free Homogeneous Dose Retest to Identify Inhibitors of RecA-Intein Splicing Activity. [Related pubchem assays (depositor defined):AID2097, AID2223, AID489010, AID492950]; type: functional
T3 sequence (P9WHJ3 whole entry): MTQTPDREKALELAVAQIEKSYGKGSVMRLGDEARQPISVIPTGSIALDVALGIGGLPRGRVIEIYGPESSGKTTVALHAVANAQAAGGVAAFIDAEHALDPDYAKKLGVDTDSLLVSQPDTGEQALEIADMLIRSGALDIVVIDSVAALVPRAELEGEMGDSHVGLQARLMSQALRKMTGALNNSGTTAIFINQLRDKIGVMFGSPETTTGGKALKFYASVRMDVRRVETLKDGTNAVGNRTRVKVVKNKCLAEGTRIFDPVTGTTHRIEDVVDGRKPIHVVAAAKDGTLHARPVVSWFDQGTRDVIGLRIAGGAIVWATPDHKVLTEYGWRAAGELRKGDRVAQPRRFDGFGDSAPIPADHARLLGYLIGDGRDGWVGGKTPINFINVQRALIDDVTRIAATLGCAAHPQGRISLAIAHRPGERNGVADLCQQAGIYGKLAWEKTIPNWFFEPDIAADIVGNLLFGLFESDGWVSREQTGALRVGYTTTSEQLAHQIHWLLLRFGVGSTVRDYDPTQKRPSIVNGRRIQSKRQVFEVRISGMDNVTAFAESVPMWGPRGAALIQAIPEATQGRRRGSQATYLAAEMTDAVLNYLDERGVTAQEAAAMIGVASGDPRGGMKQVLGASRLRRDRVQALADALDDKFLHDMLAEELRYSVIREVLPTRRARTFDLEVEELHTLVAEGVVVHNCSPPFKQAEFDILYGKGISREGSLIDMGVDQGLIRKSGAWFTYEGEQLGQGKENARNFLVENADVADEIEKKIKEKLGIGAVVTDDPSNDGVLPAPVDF

[6] = biological target: T4, Replicative DNA helicase DnaB (Mycobacterium tuberculosis, UniProt P9WMR3); assay: DnaB intein splicing inhibitors, dose response, biochemical, cell-free fluorescence (AID 449749); type: functional
T4 sequence (P9WMR3 whole entry): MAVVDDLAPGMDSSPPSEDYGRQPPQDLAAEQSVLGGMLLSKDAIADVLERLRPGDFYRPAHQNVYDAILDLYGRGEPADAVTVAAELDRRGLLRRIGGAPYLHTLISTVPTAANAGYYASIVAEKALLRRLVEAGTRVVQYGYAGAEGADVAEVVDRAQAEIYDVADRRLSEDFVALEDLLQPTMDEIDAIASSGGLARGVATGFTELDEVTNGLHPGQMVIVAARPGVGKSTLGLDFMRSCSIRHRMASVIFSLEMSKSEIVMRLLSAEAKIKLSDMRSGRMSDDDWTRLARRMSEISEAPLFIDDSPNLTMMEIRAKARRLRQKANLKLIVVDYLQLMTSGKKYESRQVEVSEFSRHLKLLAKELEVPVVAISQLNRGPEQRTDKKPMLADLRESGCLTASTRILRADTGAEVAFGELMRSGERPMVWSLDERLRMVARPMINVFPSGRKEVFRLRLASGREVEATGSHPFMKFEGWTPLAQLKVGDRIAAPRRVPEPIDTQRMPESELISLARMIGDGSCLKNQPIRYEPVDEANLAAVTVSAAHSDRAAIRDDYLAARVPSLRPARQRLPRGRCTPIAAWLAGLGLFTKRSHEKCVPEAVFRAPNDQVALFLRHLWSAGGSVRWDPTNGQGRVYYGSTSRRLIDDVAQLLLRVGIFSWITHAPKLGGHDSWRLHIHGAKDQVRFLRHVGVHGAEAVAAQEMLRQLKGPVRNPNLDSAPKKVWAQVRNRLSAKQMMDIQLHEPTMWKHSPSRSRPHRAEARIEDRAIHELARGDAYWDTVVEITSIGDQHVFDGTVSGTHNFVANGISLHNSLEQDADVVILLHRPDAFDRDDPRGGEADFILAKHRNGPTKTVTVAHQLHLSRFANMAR

Cytochrome P450 1A2 = biological target: T5, Cytochrome P450 1A2 (Homo sapiens, UniProt P05177);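 also: PubChem cytochrome P450 panel assay, CYP1A2 panel member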
T5 sequence (P05177 whole entry): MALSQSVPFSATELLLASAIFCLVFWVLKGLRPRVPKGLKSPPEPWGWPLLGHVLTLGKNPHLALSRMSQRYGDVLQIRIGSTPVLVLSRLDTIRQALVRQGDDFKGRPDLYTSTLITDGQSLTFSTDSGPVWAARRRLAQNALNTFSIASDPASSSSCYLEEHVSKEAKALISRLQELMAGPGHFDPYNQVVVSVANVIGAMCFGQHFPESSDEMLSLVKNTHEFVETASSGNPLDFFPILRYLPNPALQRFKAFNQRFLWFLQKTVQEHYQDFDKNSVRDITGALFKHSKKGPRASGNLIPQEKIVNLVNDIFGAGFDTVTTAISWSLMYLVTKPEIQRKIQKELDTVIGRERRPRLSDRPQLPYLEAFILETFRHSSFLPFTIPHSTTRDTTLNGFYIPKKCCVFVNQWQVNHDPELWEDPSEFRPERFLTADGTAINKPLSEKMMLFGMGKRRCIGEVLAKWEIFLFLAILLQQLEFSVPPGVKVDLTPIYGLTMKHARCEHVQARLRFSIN

Cytochrome P450 2D6 = Cytochrome P450 2D6 (Homo sapiens, UniProt P10635);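 also: CYP2D6 member of a cytochrome P450 panel assay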
Sequence of Cytochrome P450 2D6 (P10635 whole entry): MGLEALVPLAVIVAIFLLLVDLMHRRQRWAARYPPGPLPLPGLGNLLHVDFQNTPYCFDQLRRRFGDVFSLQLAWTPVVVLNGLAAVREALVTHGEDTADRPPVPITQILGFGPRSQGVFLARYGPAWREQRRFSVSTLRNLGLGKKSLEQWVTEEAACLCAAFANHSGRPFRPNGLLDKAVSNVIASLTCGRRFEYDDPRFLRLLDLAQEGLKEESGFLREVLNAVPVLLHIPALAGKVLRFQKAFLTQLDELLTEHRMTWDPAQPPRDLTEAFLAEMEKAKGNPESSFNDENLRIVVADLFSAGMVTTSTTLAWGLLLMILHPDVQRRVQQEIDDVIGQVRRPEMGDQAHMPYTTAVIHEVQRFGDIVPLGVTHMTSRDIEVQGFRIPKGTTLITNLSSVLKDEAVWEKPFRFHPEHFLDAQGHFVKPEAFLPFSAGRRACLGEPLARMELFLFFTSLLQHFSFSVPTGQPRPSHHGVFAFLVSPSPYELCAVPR

Cytochrome P450 2C9 = Cytochrome P450 2C9 (Homo sapiens, UniProt P11712)
Sequence of Cytochrome P450 2C9 (P11712 whole entry): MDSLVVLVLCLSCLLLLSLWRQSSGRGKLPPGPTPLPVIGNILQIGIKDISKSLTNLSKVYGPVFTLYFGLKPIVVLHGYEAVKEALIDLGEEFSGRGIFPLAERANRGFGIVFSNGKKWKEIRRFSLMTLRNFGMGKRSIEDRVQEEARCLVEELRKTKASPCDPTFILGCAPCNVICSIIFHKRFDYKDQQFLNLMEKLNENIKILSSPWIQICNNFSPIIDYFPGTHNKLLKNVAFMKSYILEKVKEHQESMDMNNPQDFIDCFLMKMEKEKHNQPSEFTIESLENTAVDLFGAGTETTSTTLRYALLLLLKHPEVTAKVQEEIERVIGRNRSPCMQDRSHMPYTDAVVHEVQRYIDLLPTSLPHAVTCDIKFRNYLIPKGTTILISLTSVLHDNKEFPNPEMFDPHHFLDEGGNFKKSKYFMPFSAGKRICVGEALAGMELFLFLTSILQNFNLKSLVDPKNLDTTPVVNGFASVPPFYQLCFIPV

Cytochrome P450 3A4 = Cytochrome P450 3A4 (Homo sapiens, UniProt P08684);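 also: CYP3A4 tested as one member of a cytochrome P450 panel screen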
Sequence of Cytochrome P450 3A4 (P08684 whole entry): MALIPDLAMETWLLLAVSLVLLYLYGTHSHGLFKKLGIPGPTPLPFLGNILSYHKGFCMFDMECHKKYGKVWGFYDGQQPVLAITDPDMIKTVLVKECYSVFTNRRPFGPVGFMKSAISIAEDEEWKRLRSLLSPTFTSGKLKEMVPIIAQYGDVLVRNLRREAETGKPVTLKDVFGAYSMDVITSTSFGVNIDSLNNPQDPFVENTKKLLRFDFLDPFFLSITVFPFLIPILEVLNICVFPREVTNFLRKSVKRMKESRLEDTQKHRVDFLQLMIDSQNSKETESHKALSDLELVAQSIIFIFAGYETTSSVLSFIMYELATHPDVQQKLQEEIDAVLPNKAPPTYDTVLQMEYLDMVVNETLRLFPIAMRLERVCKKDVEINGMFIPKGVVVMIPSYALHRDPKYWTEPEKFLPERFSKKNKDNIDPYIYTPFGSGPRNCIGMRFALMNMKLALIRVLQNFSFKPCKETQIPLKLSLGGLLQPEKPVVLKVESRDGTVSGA

CCSc1nn2c(=O)c3ccccc3nc2s1
EC50 [1]: 0.23 µM (active)

COc1cc(/C=C2/C(=O)NN(c3ccc(C)c(Cl)c3)C2=O)cc([N+](=O)[O-])c1O
IC50 [2]: 6.75 µM (active)

OCCN1CCN(CC/C=C2/c3ccccc3CSc3ccccc32)CC1
EC50 [3]: > 120 µM (not active)
EC50 [4]: > 120 µM (not active)
EC50 [5]: > 120 µM (not active)

CC(O)CC(=O)O (stereo not drawn) [3-HYDROXYBUTYRIC ACID, (+/-)-]
IC50 (Protein skinhead-1): > 100 µM (inactive)

Cc1cc(C)cc(NC(=S)N(Cc2ccc(Cl)cc2)Cc2ccc(C(=O)O)cc2)c1
IC50 (Genome polyprotein): 92.1 µM (active)

Clc1nc(Cl)nc(-c2cn(-c3ccccc3)c3ccccc23)n1
IC50 [2]: 7.98 µM (active)

O=C(CCN1C(=O)/C(=C\c2ccccc2F)SC1=S)Nc1ccc(C(=O)O)c(O)c1
EC50 (Protein RecA): 15.2 µM (active)
IC50 (Genome polyprotein): 32.5 µM (active)
AC50 [6]: 11.4 µM (active)

C=C(C)c1cccc(C(C)(C)NC(=O)N2CCN(c3ncccn3)CC2)c1
IC50 (Protein skinhead-1): > 100 µM (inactive)

CC1(C)C(=O)Nc2ccccc2N1C(=O)COc1ccccc1C#N
IC50 [2]: 13.2 µM (active)

Cc1cc(N)ccc1-n1nc2ccccc2n1
EC50 [3]: 35.7 µM (active)
EC50 [4]: 22.4 µM (active)
EC50 [5]: 36.4 µM (active)

Cc1cc2c(SCC(=O)Nc3cccc(O)c3)ncnc2s1
IC50 [2]: 6.88 µM (active)

CCc1sc(/C=C(/C#N)C(N)=S)cc1[N+](=O)[O-]
IC50 (Genome polyprotein): 33.9 µM (active)

O=C1c2ccccc2C(=O)c2c(NCc3cccnc3)cccc21
IC50 (Protein skinhead-1): > 100 µM (inactive)

CC1CCCC(C)N1C(=O)COC(=O)/C=C/c1ccc(Br)o1 (stereo not given)
IC50 [2]: 19.1 µM (active)

CC(=O)c1ccc(NC(=O)CN2C(=O)COc3ccc(S(=O)(=O)N4CCCC4)cc32)cc1
IC50 [2]: 6.65 µM (active)

O=C(c1ccc(-c2cccc(C(F)(F)F)c2)o1)N1CCOCC1
IC50 (Protein skinhead-1): > 100 µM (inactive)

N#Cc1cnn2c1nc(N1CCCCC1)c1ccccc12
EC50 [3]: 12.7 µM (active)
EC50 [4]: 10.6 µM (active)
EC50 [5]: 11.3 µM (active)

O=C(Nc1ccccc1)c1cc2ccccc2c(=O)s1
EC50 [1]: 6.73 µM (active)

O=C1c2ccccc2OC2(C=Cc3ccccc3O2)N1Cc1ccccc1 (stereo not given)
EC50 (Protein RecA): 166 µM (active)
IC50 (Protein skinhead-1): > 100 µM (inactive)
AC50 [6]: 2.83 µM (active)

O=C(Nc1ccc(Cl)cc1Cl)c1ccc(Br)o1
IC50 (Protein skinhead-1): > 100 µM (inactive)

O=C1CS/C(=C\[N+](=O)[O-])N1c1ccc(OC(F)(F)F)cc1
EC50 (Protein RecA): 10.9 µM (active)
AC50 (Cytochrome P450 1A2): 6.31 µM (inconclusive)
AC50 (Cytochrome P450 2D6): 15.8 µM (inconclusive)
AC50 (Cytochrome P450 2C9): 15.8 µM (inconclusive)
AC50 [6]: 219 µM (active)

Cn1/c(=N/C(=O)C2=NNC(=O)CC2)sc2ccccc21
EC50 [3]: > 120 µM (not active)
EC50 [4]: > 120 µM (not active)
EC50 [5]: > 120 µM (not active)

Oc1nncc(NCCc2ccccc2)c1Cl
EC50 [3]: 14.2 µM (active)
EC50 [4]: 6.91 µM (active)
EC50 [5]: 25.9 µM (active)

Cc1ccccc1NC(=O)C(=O)NNC(=O)COc1ccc2ccccc2c1
IC50 [2]: 13.1 µM (active)

COc1ccc(N2CCN(C(S)=Nc3cc(C)cc(C)c3)CC2)cc1
EC50 [3]: > 120 µM (not active)
AC50 (Cytochrome P450 3A4): 2.51 µM (inconclusive)
EC50 [4]: > 120 µM (not active)
EC50 [5]: > 120 µM (not active)

COc1ccc(OCCn2cc(/C=C(\C#N)C(=O)NCc3ccco3)c3ccccc32)cc1
EC50 [3]: 13.3 µM (active)
EC50 [4]: 16.1 µM (active)
EC50 [5]: 27.8 µM (active)

CCOC(=O)C(C)C1(O)c2ccccc2-c2ncccc21 (stereo not given)
IC50 (Protein skinhead-1): > 100 µM (inactive)

COc1ccc(N2CCN(C(=O)C3CCCN3S(=O)(=O)c3cccc4nsnc34)CC2)cc1 (stereo not given)
EC50 [3]: > 120 µM (not active)
EC50 [4]: > 120 µM (not active)
EC50 [5]: > 120 µM (not active)

O=C(/C=C/c1ccccc1)Nc1ccc(CN2CCOCC2)cc1
IC50 (Protein skinhead-1): 11.4 µM (active)

Cc1ccc(C=Cc2ccccn2)cc1
IC50 (Protein skinhead-1): 33.9 µM (active)
